We go through 17 compounds from patent US11464770B2, “Anticancer pharmaceutical composition” (NATIONAL CANCER CENTER, priority 2016, dated 2022).

Where two headings read alike, the source gives them in different places.

For the assay, the system named is lung cancer cell lines (e.g. NCI-H23, NCI-H1229). As to the kind of experiment: Cell based assay, cell viability (CellTiter-Glo), lung cancer cell lines. As to conditions: Homo sapiens. Here is the method: Commercially available bladder cancer, prostate cancer, lung cancer, breast cancer, blood cancer, pancreatic cancer, colorectal cancer, brain cancer, neuroblastoma, melanoma, liver cancer, cervical carcinoma, ovarian cancer, renal cancer, and papilloma cell lines were each treated with trypsin-EDTA and cultured, followed by being seeded in each well of a 96 well plate. After 24 hours of treatment at constant temperature, the respective cells were treated with the candidate compound so that a final concentration became 0 to 2 μM. The treated cells were additionally cultured for 72 hours, and cell viability was measured by using an ATP detection method (CellTiter-Glo® Luminescent Cell Viability Assay, Promega).
On the technique in general: In ATP-based viability assays light output follows the ATP content of the culture.

[1] abbreviates: A549 cells, 72 hours treatment, CellTiter-Glo, read-out: IC50, lung cancer cell line A549.
The mark [2] stands for this setting: DMS 114 cells, 72 hours treatment, CellTiter-Glo, read-out: IC50, lung cancer cell line DMS 114.
Setting [3] is: MRC-5 cells, 72 hours treatment, CellTiter-Glo, read-out: IC50.
Setting [4] is: NCI-H23 cells, 72 hours treatment, CellTiter-Glo, read-out: IC50, lung cancer cell line NCI-H23.
Where [5] appears, read: NCI-H460 cells, 72 hours treatment, CellTiter-Glo, read-out: IC50, lung cancer cell line NCI-H460.
Where [6] appears, read: NCI-H522 cells, 72 hours treatment, CellTiter-Glo, read-out: IC50, lung cancer cell line NCI-H522.
Setting [7] is: NCI-H1299 cells, 72 hours treatment, CellTiter-Glo, read-out: IC50, lung cancer cell line NCI-H1299.
Where [8] appears, read: NCI-H1437 cells, 72 hours treatment, CellTiter-Glo, read-out: IC50, lung cancer cell line NCI-H1437.
The mark [9] stands for this setting: Lung cancer cell line A549, 72 hours, cell viability (CellTiter-Glo), read-out: IC50, A549.
Setting [10] is: Lung cancer cell line DMS 114, 72 hours, cell viability (CellTiter-Glo), read-out: IC50, DMS 114.
The mark [11] stands for this setting: Lung cancer cell line NCI-H23, 72 hours, cell viability (CellTiter-Glo), read-out: IC50, NCI-H23.
The mark [12] stands for this setting: Lung cancer cell line NCI-H460, 72 hours, cell viability (CellTiter-Glo), read-out: IC50, NCI-H460.
Setting [13] is: Lung cancer cell line NCI-H522, 72 hours, cell viability (CellTiter-Glo), read-out: IC50, NCI-H522.
Where [14] appears, read: Lung cancer cell line NCI-H1299, 72 hours, cell viability (CellTiter-Glo), read-out: IC50, NCI-H1299.
The mark [15] stands for this setting: Lung cancer cell line NCI-H1437, 72 hours, cell viability (CellTiter-Glo), read-out: IC50, NCI-H1437.
The mark [16] stands for this setting: MRC-5 (listed under Lung cancer cell line), 72 hours, cell viability (CellTiter-Glo), read-out: IC50, MRC-5.

In general, IC50 refers to the point on the concentration scale where inhibition reaches its midpoint.

On to `CC(=O)c1c(SCc2ccccc2)n(C(=O)c2ccc(Br)cc2)c2c(Br)ccc(Cl)c2c1=O` [Compound 23, 3-acetyl-2-(benzylthio)-8-bromo-1-(4-bromobenzoyl)-5-chloroquinolin-4(1H)-one], for which the IC50 is over 2 µM under setting [1]; over 2 µM under setting [2]; over 2 µM under setting [3]; over 2 µM under setting [4]; over 2 µM under setting [5]; over 2 µM under setting [6]. The IC50 runs as follows: under setting [7], over 2 µM; under setting [8], over 10 µM.

In the case of `COCCNc1ccc(C[S+]([O-])c2[nH]c3c(Br)ccc(Cl)c3c(=O)c2C(C)=O)cn1` (stereo not shown) [Compound 105, 3-acetyl-8-bromo-5-chloro-2-(((6-((2-methoxyethyl)amino)pyridin-3-yl)methyl)sulfinyl)quinolin-4(1H)-one], the IC50 is over 2 µM under setting [9]; over 2 µM under setting [10]; over 2 µM under setting [11]; over 2 µM under setting [12]; over 2 µM under setting [13]; over 2 µM under setting [14]. The IC50 is, setting by setting: under setting [15], over 10 µM; under setting [16], over 2 µM.

Take `CC(=O)c1c([S+]([O-])Cc2ccc(S(F)(F)(F)(F)F)cc2)[nH]c2c(Br)ccc(Cl)c2c1=O` (stereo not shown) [Compound 68, 3-acetyl-8-bromo-5-chloro-2-((4-(pentafluoro-16-sulfanyl)benzyl)sulfinyl)quinolin-4(1H)-one]: the IC50 reads like this: under setting [1], 1.38 µM; under setting [2], over 2 µM; under setting [3], 0.95 µM; under setting [4], 0.77 µM; under setting [5], 1.41 µM; under setting [6], over 2 µM. Further, the IC50 is 1.24 µM under setting [7] and over 10 µM under setting [8].

Take `CSc1[nH]c2ccc(F)cc2c(=O)c1C(C)=O` [Compound 8, 1-(6-fluoro-4-hydroxy-2-(methylthio)quinolin-3-yl)ethan-1-one]: the IC50 was over 2 µM under setting [1]; over 2 µM under setting [2]; over 2 µM under setting [3]; over 2 µM under setting [4]; over 2 µM under setting [5]; over 2 µM under setting [6]. Moreover, the IC50 under setting [7] is over 2 µM and the IC50 under setting [8] is over 10 µM.

Take `CC(=O)c1c([S+]([O-])Cc2cccc(S(F)(F)(F)(F)F)c2)[nH]c2c(Br)ccc(Cl)c2c1=O` (stereo not shown) [Compound 77, 3-acetyl-8-bromo-5-chloro-2-((3-(pentafluoro--sulfanyl)benzyl)sulfinyl)quinolin-4(1H)-one]: the IC50 is, setting by setting: under setting [1], 1.84 µM; under setting [2], over 2 µM; under setting [3], 1.06 µM; under setting [4], 0.96 µM; under setting [5], 1.51 µM; under setting [6], over 2 µM. In addition, the IC50 is 1.32 µM under setting [7] and over 10 µM under setting [8].

`CC(=O)c1c([S+]([O-])Cc2ccc(SC(F)(F)F)cc2)[nH]c2c(Cl)ccc(Cl)c2c1=O` (stereo not shown) [Compound 79, 3-acetyl-5,8-dichloro-2-((4-((trifluoromethyl)thio)benzyl)sulfinyl)quinolin-4(1H)-one]: the IC50 reads like this: under setting [1], over 2 µM; under setting [2], over 2 µM; under setting [3], over 2 µM; under setting [4], over 2 µM; under setting [5], over 2 µM; under setting [6], over 2 µM. Besides, the IC50 reads like this: under setting [7], over 2 µM; under setting [8], over 10 µM.

Turning to `CC(=O)c1c(SCc2cc(F)cc(F)c2)[nH]c2c(Br)ccc(Cl)c2c1=O` [Compound 45, 3-acetyl-8-bromo-5-chloro-2-((3,5-difluorobenzyl)thio)quinolin-4(1H)-one], the IC50 runs as follows: under setting [1], over 2 µM; under setting [2], over 2 µM; under setting [3], over 2 µM; under setting [4], over 2 µM; under setting [5], over 2 µM; under setting [6], over 2 µM. The IC50 runs as follows: under setting [7], over 2 µM; under setting [8], over 10 µM.

Regarding `CC(=O)c1c([S+]([O-])c2ccc(Br)cc2)[nH]c2c(Br)ccc(Cl)c2c1=O` (stereo not shown) [Compound 17, 3-acetyl-8-bromo-2-((4-bromophenyl)sulfinyl)-5-chloroquinolin-4(1H)-one], the IC50 reads like this: under setting [1], over 2 µM; under setting [2], over 2 µM; under setting [3], over 2 µM; under setting [4], over 2 µM; under setting [5], over 2 µM; under setting [6], over 2 µM. For the same compound, the IC50 under setting [7] is over 2 µM and the IC50 under setting [8] was over 10 µM.

For `CC(=O)c1c([S+]([O-])Cc2ccccc2)nc2c(Br)ccc(Cl)c2c1O` (stereo not shown) [Compound 4], the IC50 runs as follows: under setting [1], 1.97 µM; under setting [2], over 2 µM; under setting [3], 0.91 µM; under setting [4], 0.92 µM; under setting [5], 1.65 µM; under setting [6], over 2 µM. In addition, the IC50 by setting is: under setting [7], 1.4 µM; under setting [8], over 2 µM.

Turning to `CC(=O)c1c(SCc2cc(Cl)ccc2Cl)[nH]c2c(Br)ccc(Cl)c2c1=O` [Compound 43, 3-acetyl-8-bromo-5-chloro-2-((2,5-dichlorobenzyl)thio)quinolin-4(1H)-one], the IC50 is over 2 µM under setting [1]; over 2 µM under setting [2]; over 2 µM under setting [3]; over 2 µM under setting [4]; over 2 µM under setting [5]; over 2 µM under setting [6]. Besides, the IC50 reads like this: under setting [7], over 2 µM; under setting [8], over 10 µM.

As for `CC(=O)c1c([S+](C)[O-])n(S(=O)(=O)C(F)(F)F)c2c(Br)ccc(Cl)c2c1=O` (stereo not shown) [Compound 36, 3-acetyl-8-bromo-5-chloro-2-(methylsulfinyl)-1-((trifluoromethyl)sulfonyl)quinolin-4(1H)-one], the IC50 under setting [1] is over 2 µM; the IC50 under setting [2] is over 2 µM; the concentration for half-maximal inhibition (IC50) under setting [3] is over 2 µM; the IC50 under setting [4] was over 2 µM; the half-inhibitory concentration (IC50) under setting [5] is over 2 µM; the IC50 under setting [6] is over 2 µM. Also, the IC50 by setting is: under setting [7], over 2 µM; under setting [8], over 10 µM.

On to `CC(=O)c1c([S+]([O-])Cc2ccc(-n3cccn3)nc2)[nH]c2c(Br)ccc(Cl)c2c1=O` (stereo not shown) [Compound 99, 2-(((6-(1H-pyrazol-1-yl)pyridin-3-yl)methyl)sulfinyl)-3-acetyl-8-bromo-5-chloroquinolin-4(1H)-one], for which the IC50 runs as follows: under setting [9], 1.29 µM; under setting [10], over 2 µM; under setting [11], 0.92 µM; under setting [12], 1.18 µM; under setting [13], 1.13 µM; under setting [14], 1.06 µM. The IC50 was over 10 µM under setting [15] and 1.13 µM under setting [16].

Regarding `CC(=O)c1c([S+]([O-])Cc2ccc(C#N)s2)[nH]c2c(Br)ccc(Cl)c2c1=O` (stereo not shown) [Compound 98, 5-(((3-acetyl-8-bromo-5-chloro-4-oxo-1,4-dihydroquinolin-2-yl)sulfinyl)methyl)thiophene-2-carbonitrile], the IC50 under setting [1] is over 2 µM; the IC50 under setting [2] was over 2 µM; the IC50 under setting [3] is over 2 µM; the IC50 under setting [4] was 1.64 µM; the IC50 under setting [5] turned out to be 1.68 µM; the IC50 under setting [6] was over 2 µM. For the same compound, the IC50 runs as follows: under setting [7], 1.81 µM; under setting [8], over 10 µM.

Turning to `CC(=O)c1c([S+]([O-])CN2C(=O)c3ccccc3C2=O)[nH]c2c(Cl)ccc(Cl)c2c1=O` (stereo not shown) [Compound 90, 2-(((3-acetyl-5,8-dichloro-4-oxo-1,4-dihydroquinolin-2-yl)sulfinyl)methyl)isoindoline-1,3-dione], the IC50 under setting [1] is over 2 µM; the IC50 under setting [2] is over 2 µM; the IC50 under setting [3] was over 2 µM; the half-inhibitory concentration (IC50) under setting [4] is over 2 µM; the IC50 under setting [5] was over 2 µM; the IC50 under setting [6] was over 2 µM. Further, the half-inhibitory concentration (IC50) by setting is: under setting [7], over 2 µM; under setting [8], over 10 µM.

For `CC(=O)c1c([S+]([O-])Cc2ccc(C(F)(F)F)nc2C)[nH]c2c(Br)ccc(Cl)c2c1=O` (stereo not shown) [Compound 102, 3-acetyl-8-bromo-5-chloro-2-(((2-methyl-6-(trifluoromethyl)pyridin-3-yl)methyl)sulfinyl)quinolin-4(1H)-one], the IC50 under setting [9] was found to be 1.64 µM; the IC50 under setting [10] is over 2 µM; the IC50 under setting [11] is 1.26 µM; the IC50 under setting [12] was 1.44 µM; the IC50 under setting [13] was found to be 1.49 µM; the IC50 under setting [14] worked out at 1.11 µM. Also, the IC50 is over 10 µM under setting [15] and 1.43 µM under setting [16].

Turning to `CC(=O)c1c([S+]([O-])Cc2ccc(Cl)nc2)[nH]c2c(Br)ccc(Cl)c2c1=O` (stereo not shown) [Compound 104, 3-acetyl-8-bromo-5-chloro-2-(((6-chloropyridin-3-yl)methyl)sulfinyl)quinolin-4(1H)-one], the IC50 under setting [9] worked out at 1.68 µM; the 50% inhibitory concentration (IC50) under setting [10] is over 2 µM; the IC50 under setting [11] was found to be 1.27 µM; the IC50 under setting [12] is 1.51 µM; the IC50 under setting [13] came out at 1.41 µM; the IC50 under setting [14] turned out to be 1.17 µM. In addition, the IC50 runs as follows: under setting [15], over 10 µM; under setting [16], 1.62 µM.

As for `O=C(c1c([S+]([O-])Cc2ccc(SC(F)(F)F)cc2)[nH]c2c(Br)ccc(Cl)c2c1=O)C1CC1` (stereo not shown) [Compound 101, 8-bromo-5-chloro-3-(cyclopropanecarbonyl)-2-((4-((trifluoromethyl)thio)benzyl)sulfinyl)quinolin-4(1H)-one], the IC50 is, setting by setting: under setting [9], over 2 µM; under setting [10], over 2 µM; under setting [11], 1.33 µM; under setting [12], over 2 µM; under setting [13], over 2 µM; under setting [14], over 2 µM. The IC50 under setting [15] is over 10 µM and the IC50 under setting [16] is over 2 µM.
